Entries after “also recorded” stand apart in the source; their conditions may differ.
What was measured:
CGNs = experiment: Hoechst 33342 staining of CGNs after MPP+; format: cell-based, rat; settings: 20 μM, 35 μM MPP+
Description: Chromatin condensation was detected by nucleus staining with Hoechst 33342 as described by Li et al., 2005. CGNs (2.7×10^6 cells) grown in a 35-mm dish were washed with ice-cold phosphate-buffered saline (PBS) and fixed with 4% formaldehyde in PBS. The cells were then stained with Hoechst 33342 (5 μg/ml) for 5 min at 4° C. The nuclei were visualized using a fluorescence microscope at ×400 magnification.
Chromatin condensation was detected by staining the cell nucleus with Hoechst 33342 as described by Li et al., 2005. CGNs (2.7×10^6 cells) grown in a 35-mm dish were washed with ice-cold phosphate-buffered saline (PBS), fixed with 4% formaldehyde in PBS, membrane-permeabilized in 0.1% Triton X-100 and blocked in 1% BSA. Cells were then exposed to a primary nNOS antibody (Santa Cruz) overnight at 4° C. followed by incubation at room temperature with an Alexa Fluor 488-conjugated secondary antibody. After immunostaining, cells were then stained with Hoechst 33342 (5 μg/ml) at 4° C. for 5 min. Images were acquired using a fluorescence microscope at ×100 magnification.
To quantify the percentage of apoptotic nuclei in each group, photos of each dish (n=3 dishes in each group for three independent experiments) were taken at five random fields and the numbers of apoptotic nuclei and total nuclei (n=300) were counted, and the percentage of apoptotic nuclei was averaged.

PC12 cells = experiment: MPP+-induced neurotoxicity in PC12 cells, MTT assay; format: cell-based; settings: for cell proliferative or cytotoxic effects of the drug alone, PC12 cells: alone for 26 hours, 10 μM SU4312, 3 μM PTK787/ZK222584; for toxicity to PC12 cells at higher concentration: data not shown; for MPP+-induced neuronal death in PC12 cells (MTT): pre-treatment 2 hours, then 1 mM MPP+ for 24 hours, SU4312 10 μM, PTK787/ZK222584 3 μM
Description: The human neuroblastoma SH-SY5Y cells were obtained from ATCC. The cells were maintained in supplemented Dulbecco's modified eagle medium (DMEM), 10% fetal bovine serum, 100 U/ml penicillin, and 100 μg/ml streptomycin in a 37° C., 5% CO2 incubator. PC12 pheochromocytoma cells were also obtained from ATCC. The cells were cultured in medium that consisted of DMEM, 10% heat-inactivated horse serum, 5% fetal bovine serum, 100 U/ml penicillin, and 100 μg/ml streptomycin in a 37° C., 5% CO2 incubator. All experiments were carried out 48 hours after the cells were seeded.
The percentage of surviving neurons in the presence of SU4312 and/or MPP^+ was estimated by determining the activity of mitochondrial dehydrogenases with 3(4,5-dimethylthiazol-2-yl)-2.5-diphenyltetrazolium bromide (MTT) assay (Li et al., 2007). The assay was performed according to the specifications of the manufacturer (MTT kit I; Roche Applied Science). Briefly, the neurons were cultured in 96-well plates, 10 μl of 5 mg/ml MTT labeling reagent was added to each well containing cells in 100 μl of medium, and the plates were incubated for 4 hours in a humidified incubator at 37° C. After the incubation, 100 μl of the solvating solution (0.01 N HCl in 10% SDS solution) was added to each well for 16-20 hours. Absorbance of the samples was measured at a wavelength of 570 nm with 655 nm as a reference wavelength. Unless otherwise indicated, the extent of MTT conversion in cells exposed to MPP^+ is expressed as a percentage of the control.

zebrafish = experiment: Toxicity to zebrafish; format: in vivo; settings: SU5416 10 μM, VRI 3 μM, SU4312 up to 30 μM
Description: Wild-type zebrafish (AB strain) and Tg (fli-1:EGFP) transgenic zebrafish were maintained as described in the Zebrafish Handbook (Westerfield, 1993). Zebrafish embryos were generated by natural pair-wise mating (3-12 months old) and raised at 28.5° C. in embryo medium (13.7 mM NaCl, 540 μM KCl, pH 7.4, 25 μM Na2HPO4, 44 μM KH2PO4, 300 μM CaCl2, 100 μM MgSO4, 420 μM NaHCO3, pH 7.4). […] An equal concentration of DMSO in embryo medium was used as vehicle control in each experiment.
Wild-type zebrafish (AB strain) and Tg(fli-1:EGFP) transgenic zebrafish were maintained as described in the Zebrafish Handbook (Westerfield, 1993). Zebrafish embryos were generated by natural pair-wise mating (3-12 months old) and were raised at 28.5° C. in embryo medium (13.7 mM NaCl, 540 μM KCl, pH 7.4, 25 μM Na2HPO4, 44 μM KH2PO4, 300 μM CaCl2, 100 μM MgSO4, 420 μM NaHCO3, pH 7.4). […] Equal concentration of DMSO in embryo medium was used as vehicle control in each experiment.

nNOS = nNOS (Homo sapiens, UniProt P29475); experiment: In vitro NOS activity assay, nNOS; format: biochemical; parameters: purchased Alexis Biochemicals (Lausen, Switzerland); settings: for inhibition of recombinant human nNOS: PTK787/ZK222584 up to 1 mM
Description: In the in vitro NOS activity assay (Li et al., 2007), purified recombinant human nNOS, endothelial NOS (eNOS), and inducible NOS (iNOS) were bought from Alexis Biochemicals (Lausen, Switzerland). NOS activity was determined by monitoring the conversion of L-[3H]arginine to [3H]citrulline following the instructions provided in the kit (Calbiochem, USA). The reaction mixture contained a final volume of 40 μl with 25 mM Tris-Cl at pH 7.4, 3 μM tetrahydrobiopterin, 1 μM FAD, 1 μM FMN, 1 mM NADPH, 0.6 mM CaCl2, 0.1 μM calmodulin, 2.5 μg of pure NOS enzyme, 5 μl L-[3H]arginine (Perkin Elmer, Waltham, Mass., USA), and different concentrations of the tested reagents. The reaction mixture was incubated at 22° C. for 45 min. The reaction was quenched by adding 400 μl of stopping buffer (50 mM HEPES, pH 5.5, and 5 mM EDTA) for nNOS and eNOS reactions or by heating reactive tubes for iNOS. Unreacted L-[3H]arginine was then trapped by 100 μl of equilibrated resin provided in a spin cup followed by centrifugation for 30 s at 13,200 rpm. The filtrate was quantified by liquid scintillation counting.

SMILES | nuclear condensation / apoptotic nuclei (Hoechst 33342) (CGNs) | cell proliferative or cytotoxic effects of the drug alone, PC12 cells (PC12 cells) | toxicity to PC12 cells at higher concentration (PC12 cells) | MPP+-induced neuronal death in PC12 cells (MTT) (PC12 cells) | toxicity to zebrafish (zebrafish) | Ki (nNOS; 10 and 20 μM SU4312, 5 to 40 μM L-[3H]arginine, Lineweaver-Burk, read-out: Ki value of nNOS inhibition) | mode of nNOS inhibition (nNOS; Lineweaver-Burk plots) | inhibition of recombinant human nNOS (nNOS)
CN(C)c1ccc(C=C2C(=O)Nc3ccccc32)cc1 [SU4312, 3-[4-(dimethylamino)benzylidenyl]indolin-2-one] | significantly reversed nuclear condensation induced by MPP^+ | did not show cell proliferative or cytotoxic effects | at higher concentration conferred toxicity | prevented MPP^+-induced dopaminergic neuronal death | did not induce any neurotoxicity | 12.7 µM | inhibited nNOS in a non-competitive manner; also recorded: did not alter Km but increased the appeared 1/Vmax | directly and selectively inhibit recombinant human nNOS relative to iNOS
Clc1ccc(Nc2nnc(Cc3ccncc3)c3ccccc23)cc1 [PTK787/ZK222584] | – | did not show cell proliferative or cytotoxic effects | at higher concentration conferred toxicity | at 3 μM failed to block neuronal loss induced by MPP^+ | – | – | – | did not inhibit any of the isoforms even at 1 mM
Cc1cc(C)c(/C=C2\C(=O)Nc3ccccc32)[nH]1 [SU5416, (3Z)-3-[(3,5-dimethyl-1H-pyrrol-2-yl)methylidene]-1,3-dihydro-2H-indol-2-one] | significantly reversed neuronal apoptosis induced by MPP^+ | – | – | – | showed toxicity to zebrafish | – | – | –
